Source: patent US20070128217A1 (priority 2003, published 2007)

Columns and labels:
[1] = system: antibodies in sera from SARS patients (sera 1a, 1b, 2, 6, 37, 62, London, SARS-yellow, SARS-green); assay type: binding, human; design: Binding of serum 6 to linear peptides of protein X1 of SARS-CoV Urbani / Binding of serum 37 to linear peptides of protein X1 of SARS-CoV Urbani / Binding of serum 6 to looped/cyclic peptide (PEPSCAN-ELISA) / Binding of serum 37 to looped/cyclic peptide (PEPSCAN-ELISA) / Binding of serum 37 to looped/cyclic peptides of protein X1 of SARS-CoV Urbani / Binding of serum 6 to linear peptides of protein X2 / Binding of serum 37 to linear peptides of protein X2 / Binding of serum 37 to looped/cyclic peptides of protein X2 of SARS-CoV Urbani / Binding of serum 6 to linear peptides of protein M of SARS-CoV Urbani / Binding of serum 37 to linear peptides of protein M of SARS-CoV Urbani / Binding of serum 6 to looped/cyclic peptides of protein M of SARS-CoV Urbani / Binding of serum 37 to looped/cyclic peptides of protein M of SARS-CoV Urbani / Binding of serum 6 to linear peptides of protein X3 of SARS-CoV Urbani / Binding of serum 37 to linear peptides of protein X3 of SARS-CoV Urbani / Binding of serum 37 to looped/cyclic peptides of protein X3 of SARS-CoV Urbani / Binding of serum 6 to linear peptides of protein X4 of SARS-CoV Urbani / Binding of serum 37 to linear peptides of protein X4 of SARS-CoV Urbani / Binding of serum 37 to looped/cyclic peptides of protein X4 of SARS-CoV Urbani / Binding of serum 6 to linear peptides of protein X5 of SARS-CoV Urbani / Binding of serum 37 to linear peptides of protein X5 of SARS-CoV Urbani / Binding of serum 37 to looped/cyclic peptides of protein X5 of SARS-CoV Urbani / Binding of serum 6 to linear peptides of protein N of SARS-CoV Urbani / Binding of serum 37 to linear peptides of protein N of SARS-CoV Urbani / Binding of serum 6 to linear peptide (PEPSCAN-ELISA) / Binding of serum 1a to looped/cyclic peptides of protein N of SARS-CoV Urbani / Binding of serum 1b to looped/cyclic peptides of protein N of SARS-CoV Urbani / Binding of serum 2 to looped/cyclic peptides of protein N of SARS-CoV Urbani / Binding of serum 6 to looped/cyclic peptides of protein N of SARS-CoV Urbani / Binding of serum 37 to looped/cyclic peptides of protein N of SARS-CoV Urbani / Binding of serum 62 to looped/cyclic peptides of protein N of SARS-CoV Urbani / Binding of serum London to looped/cyclic peptides of protein N of SARS-CoV Urbani / Binding of serum SARS-green to looped/cyclic peptides of protein N of SARS-CoV Urbani: unit not given here
[2] = system: control sera (pooled serum of ten healthy LUMC hospital workers; commercial negative donor pooled serum from the Dutch bloodbank); assay type: binding, human; design: Binding of Control serum LUMC to linear peptides / Binding of Control serum Blood-bank to linear peptides / Binding of Control serum LUMC to looped peptides / Binding of Control Serum Blood-Bank to Looped peptides / Binding of Control serum LUMC to linear peptides of the protein M of SARS-CoV Urbani / Binding of Control serum Blood-bank to linear peptides of the protein M of SARS-CoV Urbani / Binding of Control serum LUMC to looped peptides of the protein M of SARS-CoV Urbani / Binding of Control Serum Blood-Bank to Looped peptides of the protein M of SARS-CoV Urbani: unit not given here
[3] = system: rabbit serum obtained by immunizing a rabbit with the SARS-CoV strain Frankfurt 1; assay type: binding; design: Binding of a rabbit serum to linear peptides / Binding of a rabbit serum to looped peptides / Rabbit serum linear peptides / Rabbit serum looped peptides / Binding of a rabbit serum to linear peptides of protein N of SARS-CoV Urbani (Rabbit serum linear peptides) / Binding of a rabbit serum to looped/cyclic peptides of protein N of SARS-CoV Urbani (Rabbit serum looped peptides): unit not given here
[4] = system: recombinant human anti-SARS-CoV antibody 03-018; assay type: binding; design: Binding of antibody 03-018 to linear peptides of the N protein of SARS-CoV Urbani / Binding of antibody 03-018 to looped/cyclic peptides of the N protein of SARS-CoV Urbani: unit not given here

| Sequence | Binding of serum 1a to linear peptides of protein N of SARS-CoV Urbani [1] | Binding of serum 1a to looped/cyclic peptides of protein N of SARS-CoV Urbani [1] | Binding of serum 1b to linear peptides of protein N of SARS-CoV Urbani [1] | Binding of serum 1b to looped/cyclic peptides of protein N of SARS-CoV Urbani [1] | Binding of serum 2 to linear peptides of protein N of SARS-CoV Urbani [1] | Binding of serum 2 to looped/cyclic peptides of protein N of SARS-CoV Urbani [1] | Binding of serum 6 to linear peptides of protein N of SARS-CoV Urbani [1] | Binding of serum 6 to looped/cyclic peptides of protein N of SARS-CoV Urbani [1] | Binding of serum 37 to linear peptides of protein N of SARS-CoV Urbani [1] | Binding of serum 37 to looped/cyclic peptides of protein N of SARS-CoV Urbani [1] | Binding of serum 62 to linear peptides of protein N of SARS-CoV Urbani [1] | Binding of serum 62 to looped/cyclic peptides of protein N of SARS-CoV Urbani [1] | Binding of serum London to linear peptides of protein N of SARS-CoV Urbani [1] | Binding of serum London to looped/cyclic peptides of protein N of SARS-CoV Urbani [1] | Binding of serum SARS-green to linear peptides of protein N of SARS-CoV Urbani [1] | Binding of serum SARS-yellow to linear peptides of protein N of SARS-CoV Urbani [1] | Binding of a rabbit serum to linear peptides of protein N of SARS-CoV Urbani (Rabbit serum linear peptides) [3] | Binding of a rabbit serum to looped/cyclic peptides of protein N of SARS-CoV Urbani (Rabbit serum looped peptides) [3] | Binding of antibody 03-018 to linear peptides of the N protein of SARS-CoV Urbani [4] | Binding of antibody 03-018 to looped/cyclic peptides of the N protein of SARS-CoV Urbani [4] | further results |
| --- | --- | --- | --- | --- | --- | --- | --- | --- | --- | --- | --- | --- | --- | --- | --- | --- | --- | --- | --- | --- | --- |
| PKKDKKKKTDEAQPL | 0.2 | 0.2 | 0.1 | 0.1 | 2.5 | 0.2 | 0.2 | 0.1 | 0.7 | 0.4 | 0.7 | 0.3 | 0.5 | 0.3 | 0.1 | 0.5 | 0.1 | 0.0 | 0.1 | 0.2 | Binding of serum SARS-green to looped/cyclic peptides of protein N of SARS-CoV Urbani [1]: 0.1; Binding of serum SARS-yellow to looped/cyclic peptides of protein N of SARS-CoV Urbani [1]: 0.2; Control Serum Blood-Bank Looped peptides [2]: 0.4; Control serum Blood-bank linear peptides [2]: 0.8; Control serum LUMC linear peptides [2]: 0.8; Control serum LUMC looped peptides [2]: 0.3 |
| PKQRRPQGLPNNTAS | 0.2 | 0.5 | 0.1 | 0.5 | 0.4 | 0.8 | 0.2 | 0.4 | 0.9 | 0.8 | 0.7 | 0.7 | 0.6 | 0.6 | 0.6 | 0.6 | 0.2 | 0.2 | 0.2 | 0.3 | Binding of serum SARS-green to looped/cyclic peptides of protein N of SARS-CoV Urbani [1]: 3.1; Binding of serum SARS-yellow to looped/cyclic peptides of protein N of SARS-CoV Urbani [1]: 0.9; Binding of Control Serum Blood-Bank to Looped peptides [2]: 0.8; Binding of Control serum Blood-bank to linear peptides [2]: 0.8; Binding of Control serum LUMC to linear peptides [2]: 0.7; Binding of Control serum LUMC to looped peptides [2]: 1.0 |
| PLPQRQKKQPTVTLL | 0.2 |  | 0.1 |  | 0.2 |  | 0.2 |  | 0.5 |  | 0.6 |  | 1.0 |  | 0.2 | 1.0 | 0.1 | 0.7 | 0.1 | 0.3 | Recognition of the peptide by sera of SARS-CoV infected individuals, and form (linear, looped/cyclic) in which it is recognized [1]: recognized in looped/cyclic form; Control Serum Blood-Bank Looped peptides [2]: 1.1; Control serum Blood-bank linear peptides [2]: 0.7; Control serum LUMC linear peptides [2]: 0.5; Control serum LUMC looped peptides [2]: 1.1 |
| PNNNAATVLQLPQGT | 0.2 | 0.5 | 0.1 | 0.4 | 0.2 | 0.8 | 0.1 | 0.3 | 0.6 | 1.0 | 0.6 | 0.9 | 0.5 | 0.7 | 0.3 | 0.7 | 0.0 | 0.2 | 0.1 | 0.3 | Binding of serum SARS-green to looped/cyclic peptides of protein N of SARS-CoV Urbani [1]: 0.7; Binding of serum SARS-yellow to looped/cyclic peptides of protein N of SARS-CoV Urbani [1]: 0.5; Binding of Control Serum Blood-Bank to Looped peptides [2]: 0.9; Binding of Control serum Blood-bank to linear peptides [2]: 0.6; Binding of Control serum LUMC to linear peptides [2]: 0.6; Binding of Control serum LUMC to looped peptides [2]: 0.8 |
